From ChEMBL document CHEMBL3351417, “Thiophene-3-carboxamide analogue of annonaceous acetogenins as antitumor drug lead” (Eur J Med Chem, 2014)
One block for each compound: values may come before it. The source made the active and inactive calls. No cut-off for these calls is given here.

Columns and labels:
[1] = Growth inhibition of human HBC4 cells after 48 hrs by sulforhodamine B colorimetric assay; format: functional; conditions: HBC4, 48 h
[2] = Growth inhibition of human BSY1 cells after 48 hrs by sulforhodamine B colorimetric assay; format: functional; conditions: BSY-1, 48 h
[3] = Growth inhibition of human HBC5 cells after 48 hrs by sulforhodamine B colorimetric assay; format: functional; conditions: HBC5, 48 h
MCF7 = assay: Growth inhibition of human MCF7 cells after 48 hrs by sulforhodamine B colorimetric assay; format: functional; conditions: MCF7, 48 h
MDA-MB-231 = assay: Growth inhibition of human MDA-MB-231 cells after 48 hrs by sulforhodamine B colorimetric assay; format: functional; conditions: MDA-MB-231, 48 h
U-251 = assay: Growth inhibition of human U251 cells after 48 hrs by sulforhodamine B colorimetric assay; format: functional; conditions: U-251, 48 h
SF-268 = assay: Growth inhibition of human SF268 cells after 48 hrs by sulforhodamine B colorimetric assay; format: functional; conditions: SF-268, 48 h
[4] = Growth inhibition of human SF295 cells after 48 hrs by sulforhodamine B colorimetric assay; format: functional; conditions: SF-295, 48 h
[5] = Growth inhibition of human SF539 cells after 48 hrs by sulforhodamine B colorimetric assay; format: functional; conditions: SF-539, 48 h
SNB-75 = assay: Growth inhibition of human SNB75 cells after 48 hrs by sulforhodamine B colorimetric assay; format: functional; conditions: SNB-75, 48 h
[6] = Growth inhibition of human SNB78 cells after 48 hrs by sulforhodamine B colorimetric assay; format: functional; conditions: SNB-78, 48 h
[7] = Growth inhibition of human HCC2998 cells after 48 hrs by sulforhodamine B colorimetric assay; format: functional; conditions: HCC 2998, 48 h
KM12 = assay: Growth inhibition of human KM12 cells after 48 hrs by sulforhodamine B colorimetric assay; format: functional; conditions: KM12, 48 h
HT-29 = assay: Growth inhibition of human HT-29 cells after 48 hrs by sulforhodamine B colorimetric assay; format: functional; conditions: HT-29, 48 h
[8] = Growth inhibition of human HCT15 cells after 48 hrs by sulforhodamine B colorimetric assay; format: functional; conditions: HCT-15, 48 h
[9] = Growth inhibition of human HCT116 cells after 48 hrs by sulforhodamine B colorimetric assay; format: functional; conditions: HCT-116, 48 h
NCI-H23 [10] = assay: Growth inhibition of human NCI-H23 cells after 48 hrs by sulforhodamine B colorimetric assay; format: functional; conditions: NCI-H23, 48 h
NCI-H226 = assay: Growth inhibition of human NCI-H226 cells after 48 hrs by sulforhodamine B colorimetric assay; format: functional; conditions: NCI-H226, 48 h
NCI-H522 = assay: Growth inhibition of human NCI-H522 cells after 48 hrs by sulforhodamine B colorimetric assay; format: functional; conditions: NCI-H522, 48 h
NCI-H460 = assay: Growth inhibition of human NCI-H460 cells after 48 hrs by sulforhodamine B colorimetric assay; format: functional; conditions: NCI-H460, 48 h
A549 = assay: Growth inhibition of human A549 cells after 48 hrs by sulforhodamine B colorimetric assay; format: functional; conditions: A549, 48 h
[11] = Growth inhibition of human DMS273 cells after 48 hrs by sulforhodamine B colorimetric assay; format: functional; conditions: DMS-273, 48 h
[12] = Growth inhibition of human DMS114 cells after 48 hrs by sulforhodamine B colorimetric assay; format: functional; conditions: DMS-114, 48 h
[13] = Growth inhibition of human LOXIMVI cells after 48 hrs by sulforhodamine B colorimetric assay; format: functional; conditions: LOX IMVI
[14] = Growth inhibition of human OVCAR3 cells after 48 hrs by sulforhodamine B colorimetric assay; format: functional; conditions: OVCAR-3, 48 h
[15] = Growth inhibition of human OVCAR4 cells after 48 hrs by sulforhodamine B colorimetric assay; format: functional; conditions: OVCAR-4, 48 h
[16] = Growth inhibition of human OVCAR5 cells after 48 hrs by sulforhodamine B colorimetric assay; format: functional; conditions: OVCAR-5, 48 h
[17] = Growth inhibition of human OVCAR8 cells after 48 hrs by sulforhodamine B colorimetric assay; format: functional; conditions: OVCAR-8, 48 h
SK-OV-3 = assay: Growth inhibition of human SKOV3 cells after 48 hrs by sulforhodamine B colorimetric assay; format: functional; conditions: SK-OV-3, 48 h
[18] = Growth inhibition of human RXF631L cells after 48 hrs by sulforhodamine B colorimetric assay; format: functional; conditions: RXF 631, 48 h
ACHN = assay: Growth inhibition of human ACHN cells after 48 hrs by sulforhodamine B colorimetric assay; format: functional
St-4 = assay: Growth inhibition of human St-4 cells after 48 hrs by sulforhodamine B colorimetric assay; format: functional; conditions: St-4, 48 h
[19] = Growth inhibition of human MKN1 cells after 48 hrs by sulforhodamine B colorimetric assay; format: functional; conditions: MKN-1, 48 h
[20] = Growth inhibition of human MKN7 cells after 48 hrs by sulforhodamine B colorimetric assay; format: functional; conditions: MKN-7, 48 h
[21] = Growth inhibition of human MKN28 cells after 48 hrs by sulforhodamine B colorimetric assay; format: functional; conditions: MKN-28, 48 h
[22] = Growth inhibition of human MKN45 cells after 48 hrs by sulforhodamine B colorimetric assay; format: functional; conditions: MKN-45, 48 h
[23] = Growth inhibition of human MKN74 cells after 48 hrs by sulforhodamine B colorimetric assay; format: functional; conditions: MKN-74, 48 h
DU-145 = assay: Growth inhibition of human DU145 cells after 48 hrs by sulforhodamine B colorimetric assay; format: functional; conditions: DU-145, 48 h
[24] = Growth inhibition of human PC3 cells after 48 hrs by sulforhodamine B colorimetric assay; format: functional; conditions: PC-3, 48 h
NCI-H23 [25] = assay: Antitumor activity against human NCI-H23 cells xenografted in mouse assessed as inhibition of tumor growth on day 16 at 100 mg/kg, ip on day 0 and day 6; format: functional, organism-based; design: dose 100 mg/kg
NCI-H23 [26] = assay: Antitumor activity against human NCI-H23 cells xenografted in mouse assessed as average tumor size on day 16 at 100 mg/kg, ip on day 0 and day 6 relative to control mouse; format: functional; conditions: route intraperitoneal

GI50 (MCF7): > 100 µM
GI50 (MDA-MB-231): > 100 µM
GI50 (U-251): > 100 µM
GI50 (HT-29): > 100 µM
GI50 (NCI-H23 [10]): 4.79 µM
GI50 (NCI-H226): > 100 µM
GI50 (NCI-H522): 19.1 µM
GI50 (NCI-H460): 34.7 µM
GI50 (A549): 34.7 µM
GI50 (SK-OV-3): > 100 µM
GI50 (ACHN): > 100 µM
GI50 (DU-145): > 100 µM
Structure (SMILES): CCCCCCCCCCCC[C@@H](O)[C@H]1CC[C@H]([C@H](O)CCCCCCCCCCNC(=O)c2cncs2)O1
GI50 [1]: > 100 µM
GI50 [2]: 3.98 µM
GI50 [3]: > 100 µM
GI50 (SF-268): > 100 µM
GI50 [4]: 43.7 µM
GI50 [5]: 50.1 µM
GI50 (SNB-75): > 100 µM
GI50 [6]: > 100 µM
GI50 [7]: > 100 µM
GI50 (KM12): > 100 µM
GI50 [8]: > 100 µM
GI50 [9]: 12.9 µM
GI50 [11]: 19.1 µM
GI50 [12]: 0.219 µM
GI50 [13]: > 100 µM
GI50 [14]: > 100 µM
GI50 [15]: > 100 µM
GI50 [16]: > 100 µM
GI50 [17]: > 100 µM
GI50 [18]: > 100 µM
GI50 (St-4): > 100 µM
GI50 [19]: > 100 µM
GI50 [20]: 0.617 µM
GI50 [21]: 0.832 µM
GI50 [22]: > 100 µM
GI50 [23]: 61.7 µM
GI50 [24]: > 100 µM

GI50 (MCF7): 2.19 µM
GI50 (MDA-MB-231): 2.57 µM
GI50 (U-251): 2 µM
GI50 (HT-29): 2.19 µM
GI50 (NCI-H23 [10]): 0.676 µM
GI50 (NCI-H226): 2.09 µM
GI50 (NCI-H522): 1.1 µM
GI50 (NCI-H460): 2.29 µM
GI50 (A549): 3.72 µM
GI50 (SK-OV-3): 28.8 µM
GI50 (ACHN): 2.57 µM
GI50 (DU-145): 2.69 µM
Structure (SMILES): CCCCCCCCCCCC[C@@H](O)[C@H]1CC[C@H]([C@H](O)CCCCCCCCCCNC(=O)c2cccs2)O1
GI50 [1]: 3.39 µM
GI50 [2]: 18.2 µM
GI50 [3]: 3.24 µM
GI50 (SF-268): 3.98 µM
GI50 [4]: 1.41 µM
GI50 [5]: 17 µM
GI50 (SNB-75): 3.39 µM
GI50 [6]: 2.29 µM
GI50 [7]: 2 µM
GI50 (KM12): 3.09 µM
GI50 [8]: 5.75 µM
GI50 [9]: 1.29 µM
GI50 [11]: 1.82 µM
GI50 [12]: 0.282 µM
GI50 [13]: 1.29 µM
GI50 [14]: 0.0427 µM
GI50 [15]: 1.82 µM
GI50 [16]: 2.51 µM
GI50 [17]: 3.02 µM
GI50 [18]: 3.24 µM
GI50 (St-4): 1.82 µM
GI50 [19]: 1.82 µM
GI50 [20]: 0.269 µM
GI50 [21]: 0.363 µM
GI50 [22]: 3.31 µM
GI50 [23]: 1.51 µM
GI50 [24]: 2.29 µM

GI50 (MCF7): 2 µM
GI50 (MDA-MB-231): 4.47 µM
GI50 (U-251): > 100 µM
GI50 (HT-29): 1.91 µM
GI50 (NCI-H23 [10]): 0.2 µM
GI50 (NCI-H226): 2.4 µM
GI50 (NCI-H522): 1 µM
GI50 (NCI-H460): 4.9 µM
GI50 (A549): > 100 µM
GI50 (SK-OV-3): > 100 µM
GI50 (ACHN): 3.89 µM
GI50 (DU-145): 2.19 µM
Structure (SMILES): CCCCCCCCCCCC[C@@H](O)[C@H]1CC[C@H]([C@H](O)CCCCCCCCCCNC(=O)c2ccsc2)O1
GI50 [1]: > 100 µM
GI50 [2]: 3.02 µM
GI50 [3]: 2.09 µM
GI50 (SF-268): > 100 µM
GI50 [4]: 1 µM
GI50 [5]: > 100 µM
GI50 (SNB-75): 2.82 µM
GI50 [6]: > 100 µM
GI50 [7]: 2.19 µM
GI50 (KM12): 3.02 µM
GI50 [8]: 38 µM
GI50 [9]: 1.29 µM
GI50 [11]: 2 µM
GI50 [12]: 0.17 µM
GI50 [13]: 1.51 µM
GI50 [14]: 1.7 µM
GI50 [15]: 1.7 µM
GI50 [16]: 2.69 µM
GI50 [17]: 1.91 µM
GI50 [18]: > 100 µM
GI50 (St-4): 1.7 µM
GI50 [19]: 2.29 µM
GI50 [20]: 0.17 µM
GI50 [21]: 0.575 µM
GI50 [22]: 3.72 µM
GI50 [23]: 1.51 µM
GI50 [24]: 1.7 µM
inhibition (NCI-H23 [25]): Active
Activity (NCI-H23 [26]): 16%

Structure (SMILES): CCCCCCCCCCCC[C@@H](O)[C@H]1CC[C@H]([C@H](O)CCCCCCCCCCCCC2=C[C@H](C)OC2=O)O1 [REL-SOLAMIN]
GI50 [1]: > 100 µM
GI50 [2]: > 100 µM
GI50 [3]: > 100 µM
GI50 (MDA-MB-231): > 100 µM
GI50 (U-251): > 100 µM
GI50 (SF-268): > 100 µM
GI50 [4]: 39.8 µM
GI50 [5]: > 100 µM
GI50 (SNB-75): > 100 µM
GI50 [6]: > 100 µM
GI50 [7]: > 100 µM
GI50 (KM12): > 100 µM
GI50 (HT-29): > 100 µM
GI50 [8]: > 100 µM
GI50 [9]: > 100 µM
GI50 (NCI-H226): > 100 µM
GI50 (NCI-H460): > 100 µM
GI50 (A549): > 100 µM
GI50 [11]: > 100 µM
GI50 [14]: > 100 µM
GI50 [15]: > 100 µM
GI50 [16]: > 100 µM
GI50 [17]: > 100 µM
GI50 (SK-OV-3): > 100 µM
GI50 [18]: > 100 µM
GI50 (ACHN): > 100 µM
GI50 (St-4): > 100 µM
GI50 [19]: > 100 µM
GI50 [22]: > 100 µM
GI50 [23]: > 100 µM
GI50 (DU-145): > 100 µM
GI50 [24]: > 100 µM
